Measured values as given in patent publication US11517598B2 (priority 2016, dated 2022).

Test system: cytokine, chemokine and IFN stimulated gene expression in 786-0 cells
Type: cell-based, human

Q: Which “CXCL9 mRNA up-regulation” value does the source give for Sodium orthovanadate here?
A: Its value is “more than 100,000 fold”.

Q: And the “IFNβ mRNA up-regulation” value?
A: Its value is “more than 10 fold”.

Q: And the IFNγ expression?
A: The IFNγ expression was “not up-regulated at any time-point post infection under any condition tested”.

Q: And the “MX2 and IFITM1 mRNA” value?
A: Its value is “robustly downregulated as early as 8 h post-infection”.

Q: And the “expression of proinflammatory cytokines (CCL8, CCL3, IL6, TNF, IFNβ, CCL5) and type II IFN induced genes (CXCL9, CXCL10, CXCL11)” value?
A: Its value is “increased expression of a number of proinflammatory cytokines”.

Q: And the “genes typically induced by Type I IFN” value?
A: Its value is “either unaffected or decreased”.
